The test system of experiment [1] is SKOV3 ovarian cancer cells. The experiment in a line: Cell experiment, cell survival rate. In kind it is cell-based. Particulars: iron preparation alone 13.65 μg/mL, 48 h. As for the experimental part: (§1) Cells growing in a log phase are collected, the concentration of the cell suspension is adjusted, 100 μL of cell suspension is added to each well and the cells are plated (edge wells are filled with sterile PBS) at a density of 1×10^3-10^4 cells/well. The cells are incubated for 24 hours at 37° C. under the condition of 5% CO2, a nanocarbon-iron solution having a concentration gradient (nanocarbon content: 125, 62.5, 15.63 and 3.91 μg/mL; and ferric ion content: 13.65, 6.83, 1.71 and 0.43 μg/mL) is added, and three sub-wells are set. Then the cells are incubated for 48 hours at 37° C. under the condition of 5% CO2. 10 μL of CCK8 solution is added to each well and then the cells are continuously incubated for 2 hours. The absorbance of each well is measured at OD=450 nm with the microplate reader. In addition, a negative control group, nanocarbon control groups having the same concentration and iron preparation control groups having the same concentration are set.
as §1, with “and 1” for “100”, “of a 6-well plate” for “and the cells are plated (edge wells are filled with sterile PBS)”, “3×10^4” for “1×10^3-10^4”, “1.71,” for “1.71 and”, “The” for “10 μL of CCK8 solution is added to each well and then the”, “trypsinized and counted.” for “continuously incubated for 2 hours. The absorbance of each well is measured at OD=450 nm with the microplate reader.”

The subject of experiment [2] is SMMC7721 liver cancer cells. Briefly: Cell experiment, cell survival rate. In kind it is cell-based. Particulars: SMMC-7721, 48 h. As for the experimental part:
as §1
as §1, with “and 1” for “100”, “of a 6-well plate” for “and the cells are plated (edge wells are filled with sterile PBS)”, “3×10^4” for “1×10^3-10^4”, “1.71,” for “1.71 and”, “The” for “10 μL of CCK8 solution is added to each well and then the”, “trypsinized and counted.” for “continuously incubated for 2 hours. The absorbance of each well is measured at OD=450 nm with the microplate reader.”

Experiment [3] deals with TPC-1 thyroid cancer cells. Briefly: Cell experiment, cell survival rate. Type of experiment: cell-based. The note with it: 48 h. The procedure: as §1
as §1, with “and 1” for “100”, “of a 6-well plate” for “and the cells are plated (edge wells are filled with sterile PBS)”, “3×10^4” for “1×10^3-10^4”, “1.71,” for “1.71 and”, “The” for “10 μL of CCK8 solution is added to each well and then the”, “trypsinized and counted.” for “continuously incubated for 2 hours. The absorbance of each well is measured at OD=450 nm with the microplate reader.”

For experiment [4], the system named is murine liver cancer H22 cells. The experiment in a line: Cell experiment, cell survival rate. Type of experiment: cell-based. Particulars: 48 h. As for the experimental part: as §1
as §1, with “and 1” for “100”, “of a 6-well plate” for “and the cells are plated (edge wells are filled with sterile PBS)”, “3×10^4” for “1×10^3-10^4”, “1.71,” for “1.71 and”, “The” for “10 μL of CCK8 solution is added to each well and then the”, “trypsinized and counted.” for “continuously incubated for 2 hours. The absorbance of each well is measured at OD=450 nm with the microplate reader.”

Experiment [5] has as its system subcutaneous transplantation tumors of 9 types of cancer cells. Briefly: Tumor growth inhibition experiments, subcutaneous transplantation tumors. Type of experiment: in vivo, mice. Particulars: FIGS. 4-39. As for the experimental part: Cells growing in a log phase are collected, the concentration of the cell suspension is adjusted to 3×10^7 cells/mL, and the cell suspension is inoculated subcutaneously into the right upper extremities of nude mice at the inoculation dosage of 0.1 mL (about 3×10^6 cells) per mouse. When the average tumor volume of the inoculated mice reaches 100 mm^3, the tumor-bearing mice are randomly divided into the following groups (8 nude mice per group): a negative control group (0.9% sodium chloride injection), a nanocarbon control group, an iron preparation control group, a nanocarbon-iron suspension experimental group, and a cis-platinum control group (intraperitoneal injection at the dosage of 5 mg/kg). The above various drugs are injected into the tumors. The tumor volume changes are recorded, and the formula for calculating the volume is Volume=(length×the square of width)/2.
Milky white and thick ascites is extracted from the H22 tumor-bearing mice, the concentration of the cell suspension is adjusted to be 3×10^7 cells/mL, 0.1 mL of cell suspension (about 3×10^6 cells) is inoculated subcutaneously into the right upper extremity of each of Kunming mice. When the average tumor volume of the inoculated mice reaches 100 mm^3, the tumor-bearing mice are randomly divided into the following groups (8 mice per group): a negative control group (0.9% sodium chloride injection), a nanocarbon control group, an iron preparation control group, a nanocarbon-iron suspension experimental group, and a cis-platinum control group (intraperitoneal injection at the dosage of 5 mg/kg). The above various drugs are injected into the tumors. The tumor volume changes are recorded, and the formula for calculating the volume is Volume=(length×the square of width)/2.

Experiment [6] deals with H22 metastatic lymph nodes. The experiment in a line: Lymph node metastasis inhibition experiment. In kind it is in vivo, Kunming mouse. The note with it: popliteal lymph nodes. As for the experimental part:
(§2) Milky white and thick ascites is extracted from the H22 tumor-bearing mice, the concentration is adjusted to be 3×10^7 cells/mL, 0.05 mL of cell suspension (about 1.5×10^6 cells) is inoculated subcutaneously into the left hind foot pads of each Kunming mouse, and thus a lymph node metastasis mouse model is obtained. The mice are treated when the diameter of the tumor reaches 6-8 mm and there is no ulcer and necrosis. The mice are randomly divided into four groups (10 mice per group): a negative control group (0.9% sodium chloride injection), a nanocarbon control group, an iron preparation control group and a nanocarbon-iron suspension experimental group. 10 days after inoculation, the mice are killed, and popliteal lymph nodes are collected, weighed and fixed for pathological examination.

The subject of experiment [7] is A549 metastatic lymph nodes. Briefly: Lymph node metastasis inhibition experiment. Type of experiment: in vivo, nude mouse. Particulars: popliteal lymph nodes. As for the experimental part:
as §2, with “Cells growing in a log phase are collected,” for “Milky white and thick ascites is extracted from the H22 tumor-bearing mice,”, “concentration of the cell suspension” for “concentration”, “to” for “to be”, “the” for “0.05 mL of”, “suspension” for “suspension (about 1.5×10^6 cells)”, “nude mouse at the inoculation volume of 0.05 mL (about 1.5×10^6 cells)” for “Kunming mouse,”

In experiment [8] the test system is HCT116 metastatic lymph nodes. Briefly: Lymph node metastasis inhibition experiment. In kind it is in vivo, nude mouse. The note with it: popliteal lymph nodes. As for the experimental part: as §2, with “Cells growing in a log phase are collected,” for “Milky white and thick ascites is extracted from the H22 tumor-bearing mice,”, “concentration of the cell suspension” for “concentration”, “to” for “to be”, “the” for “0.05 mL of”, “suspension” for “suspension (about 1.5×10^6 cells)”, “nude mouse at the inoculation volume of 0.05 mL (about 1.5×10^6 cells)” for “Kunming mouse,”

Experiment [9] has as its system Hela metastatic lymph nodes. Briefly: Lymph node metastasis inhibition experiment. Particulars: popliteal lymph nodes. In kind it is in vivo, nude mouse. The procedure:
as §2, with “Cells growing in a log phase are collected,” for “Milky white and thick ascites is extracted from the H22 tumor-bearing mice,”, “concentration of the cell suspension” for “concentration”, “to” for “to be”, “the” for “0.05 mL of”, “suspension” for “suspension (about 1.5×10^6 cells)”, “nude mouse at the inoculation volume of 0.05 mL (about 1.5×10^6 cells)” for “Kunming mouse,”

Experiment [10] has as its system MDA-MB-231 metastatic lymph nodes. Briefly: Lymph node metastasis inhibition experiment. Particulars: popliteal lymph nodes. In kind it is in vivo, nude mouse. The procedure: as §2, with “Cells growing in a log phase are collected,” for “Milky white and thick ascites is extracted from the H22 tumor-bearing mice,”, “concentration of the cell suspension” for “concentration”, “to” for “to be”, “the” for “0.05 mL of”, “suspension” for “suspension (about 1.5×10^6 cells)”, “nude mouse at the inoculation volume of 0.05 mL (about 1.5×10^6 cells)” for “Kunming mouse,”

For experiment [11], the system named is SGC-7901 metastatic lymph nodes. The experiment in a line: Lymph node metastasis inhibition experiment. In kind it is in vivo, nude mouse. Particulars: popliteal lymph nodes. As for the experimental part: as §2, with “Cells growing in a log phase are collected,” for “Milky white and thick ascites is extracted from the H22 tumor-bearing mice,”, “concentration of the cell suspension” for “concentration”, “to” for “to be”, “the” for “0.05 mL of”, “suspension” for “suspension (about 1.5×10^6 cells)”, “nude mouse at the inoculation volume of 0.05 mL (about 1.5×10^6 cells)” for “Kunming mouse,”

The test system of experiment [12] is SKOV3 metastatic lymph nodes. Briefly: Lymph node metastasis inhibition experiment. In kind it is in vivo, nude mouse. Particulars: popliteal lymph nodes. The procedure:
as §2, with “Cells growing in a log phase are collected,” for “Milky white and thick ascites is extracted from the H22 tumor-bearing mice,”, “concentration of the cell suspension” for “concentration”, “to” for “to be”, “the” for “0.05 mL of”, “suspension” for “suspension (about 1.5×10^6 cells)”, “nude mouse at the inoculation volume of 0.05 mL (about 1.5×10^6 cells)” for “Kunming mouse,”

The test system of experiment [13] is SMMC-7721 metastatic lymph nodes. The experiment in a line: Lymph node metastasis inhibition experiment. In kind it is in vivo, nude mouse. The note with it: popliteal lymph nodes. As for the experimental part: as §2, with “Cells growing in a log phase are collected,” for “Milky white and thick ascites is extracted from the H22 tumor-bearing mice,”, “concentration of the cell suspension” for “concentration”, “to” for “to be”, “the” for “0.05 mL of”, “suspension” for “suspension (about 1.5×10^6 cells)”, “nude mouse at the inoculation volume of 0.05 mL (about 1.5×10^6 cells)” for “Kunming mouse,”

Experiment [14] concerns TPC-1 metastatic lymph nodes. The experiment in a line: Lymph node metastasis inhibition experiment. Type of experiment: in vivo, nude mouse. The note with it: popliteal lymph nodes. As for the experimental part: as §2, with “Cells growing in a log phase are collected,” for “Milky white and thick ascites is extracted from the H22 tumor-bearing mice,”, “concentration of the cell suspension” for “concentration”, “to” for “to be”, “the” for “0.05 mL of”, “suspension” for “suspension (about 1.5×10^6 cells)”, “nude mouse at the inoculation volume of 0.05 mL (about 1.5×10^6 cells)” for “Kunming mouse,”

Experiment [15] relates to lymph node metastasis of 9 types of tumor cells. Briefly: Lymph node metastasis inhibition experiment, summary. Type of experiment: in vivo, mice. The procedure: as §2, with “Cells growing in a log phase are collected,” for “Milky white and thick ascites is extracted from the H22 tumor-bearing mice,”, “concentration of the cell suspension” for “concentration”, “to” for “to be”, “the” for “0.05 mL of”, “suspension” for “suspension (about 1.5×10^6 cells)”, “nude mouse at the inoculation volume of 0.05 mL (about 1.5×10^6 cells)” for “Kunming mouse,”
as §2

[16] abbreviates: iron preparation alone 0.43 μg/mL.
The mark [17] stands for this setting: iron preparation alone 1.71 μg/mL.
Setting [18] is: iron preparation alone 6.83 μg/mL.
Setting [19] is: iron preparation alone 13.65 μg/mL.

Consider one substance from patent US11235976B2, “Nanocarbon-iron composite system as well as composition, preparation method and use thereof” (Chongqing Lummy Pharmaceutical Co., LTD, priority 2017, dated 2022).

Turning to ammonium ferric citrate, the “Cell Survival Rate” value in experiment [1] came out at 100%; in experiment [2] (setting [16]), 100%; in experiment [2] (setting [17]) it was 98.43%; in [2] (setting [18]), 94.19%; in experiment [2] (setting [19]) it was 100%; in experiment [3] (setting [16]), 97.30%. Moreover, the “Cell Survival Rate” value in [3] (setting [17]) is on record as 96.41%; in experiment [3] (setting [18]), 100%; in [3] (setting [19]) it was 100%; in experiment [4] (setting [16]), 96.21%; in experiment [4] (setting [17]) it was 97.64%; in experiment [4] (setting [18]), 95.12%. Moreover, the “Cell Survival Rate” value in [4] (setting [19]) is recorded as 100%. Moreover, the “inhibition effect on growth of 9 types of tumors” value in experiment [5] is “do not have an inhibition effect”. Also, the “Weight of Lymph Node” value in experiment [6] turned out to be 53.94 ± 11.58 mg; in experiment [7], 45.67 ± 10.68 mg; in [8], 49.57 ± 20.67 mg; in experiment [9] it was 30.94 ± 10.68 mg; in experiment [10], 46.97 ± 10.36 mg; in experiment [11], 43.69 ± 8.97 mg. Further, the “Weight of Lymph Node” value is 32.98 ± 6.42 mg in [12], 56.98 ± 17.59 mg in experiment [13] and 41.97 ± 20.12 mg in experiment [14]. For the same substance, the “inhibition effect on the metastatic lymph nodes” value in experiment [15] is given as “do not have an inhibition effect”.
